# Results published in the Biogen ADME set (Fang et al. 2023).
# Conditions: for aqueous solubility: pH 6.8
structure (smiles),measurement,value
O=c1c2cccc(C(F)(F)F)c2ncn1C1CCCC1,MDR1-MDCK efflux ratio,0.528
same,"intrinsic clearance, human liver microsomes",115 mL/min/kg
same,"intrinsic clearance, rat liver microsomes",317 mL/min/kg
O=C(Nc1cnc2ccccc2n1)c1ccncc1,MDR1-MDCK efflux ratio,0.578
same,"intrinsic clearance, human liver microsomes",6.67 mL/min/kg
same,"intrinsic clearance, rat liver microsomes",127 mL/min/kg
COc1ccc(CNC(=O)CCSc2nc3c(=O)n(C)c(=O)n(C)c3n2C)cc1,"intrinsic clearance, human liver microsomes",52 mL/min/kg
same,"intrinsic clearance, rat liver microsomes",247 mL/min/kg
Cc1cc(NC2CCCC2)nc(C2CCNCC2)n1,MDR1-MDCK efflux ratio,66.7
same,"intrinsic clearance, human liver microsomes",≤ 4.74 mL/min/kg
same,"intrinsic clearance, rat liver microsomes",24.8 mL/min/kg
same,aqueous solubility,71.4 µg/mL
CC(C)(C)NC(=O)Cn1nc(C(c2ccccc2)c2ccccc2)oc1=O,MDR1-MDCK efflux ratio,4.07
same,"intrinsic clearance, human liver microsomes",22.4 mL/min/kg
same,"intrinsic clearance, rat liver microsomes",747 mL/min/kg
same,aqueous solubility,6.02 µg/mL
O=C(CCCc1ccc(F)cc1)N1CCN(c2ccccc2)C(=O)C1,MDR1-MDCK efflux ratio,0.896
same,"intrinsic clearance, human liver microsomes",≤ 4.74 mL/min/kg
same,"intrinsic clearance, rat liver microsomes",176 mL/min/kg
same,aqueous solubility,49.2 µg/mL
Cc1nc(C)n(-c2ccccc2NC(=O)c2cc(C#N)cn2C)n1,"intrinsic clearance, human liver microsomes",11.6 mL/min/kg
same,"intrinsic clearance, rat liver microsomes",163 mL/min/kg
C[C@@H](Oc1cc(-c2cnn(C3CCNCC3)c2)cnc1N)c1c(Cl)ccc(F)c1Cl,"intrinsic clearance, human liver microsomes",23.2 mL/min/kg
same,"intrinsic clearance, rat liver microsomes",106 mL/min/kg
same,aqueous solubility,32.5 µg/mL
CN1C(=O)CCc2cc(NC(=O)C(C)(C)c3ccccc3F)ccc21,"intrinsic clearance, human liver microsomes",29.3 mL/min/kg
same,"intrinsic clearance, rat liver microsomes",362 mL/min/kg
same,aqueous solubility,80.8 µg/mL
COc1cccc(N2CCN(c3nc(C)cc(C)c3C#N)CC2)c1,MDR1-MDCK efflux ratio,0.519
same,aqueous solubility,0.9 µg/mL
CCNC(=O)c1ccnc(-c2ccc(F)c(C)c2)c1,"intrinsic clearance, human liver microsomes",123 mL/min/kg
same,"intrinsic clearance, rat liver microsomes",1070 mL/min/kg
same,aqueous solubility,28.4 µg/mL
NCc1cccnc1OCc1ccccc1,MDR1-MDCK efflux ratio,0.434
same,"intrinsic clearance, human liver microsomes",11.7 mL/min/kg
same,"intrinsic clearance, rat liver microsomes",747 mL/min/kg
same,aqueous solubility,25.5 µg/mL
Cc1cn2nc(-c3cc(=O)n4cc(N5CCNC6(CC6)C5)ccc4n3)cc(C)c2n1,MDR1-MDCK efflux ratio,12.7
same,"fraction unbound, human plasma",0.0967
same,"intrinsic clearance, human liver microsomes",17.5 mL/min/kg
same,aqueous solubility,36 µg/mL
CCc1cc2c(N(C)CCO)ncnc2s1,MDR1-MDCK efflux ratio,0.676
same,"intrinsic clearance, human liver microsomes",73.6 mL/min/kg
same,"intrinsic clearance, rat liver microsomes",139 mL/min/kg
same,aqueous solubility,40.9 µg/mL
CCN(Cc1nc(C)no1)C(=O)c1cc(C)c(C)n(C)c1=O,MDR1-MDCK efflux ratio,82.6
same,"intrinsic clearance, human liver microsomes",≤ 4.74 mL/min/kg
same,"intrinsic clearance, rat liver microsomes",≤ 10.7 mL/min/kg
CN(CC#N)C(=O)c1cccc(CN2CCCC2)c1,MDR1-MDCK efflux ratio,2.59
same,"intrinsic clearance, human liver microsomes",≤ 4.74 mL/min/kg
same,"intrinsic clearance, rat liver microsomes",322 mL/min/kg
same,aqueous solubility,34.9 µg/mL
COCC(=O)N1CCC(Cc2ccccc2-c2cccc(F)c2)(C(=O)NC(C)C)CC1,MDR1-MDCK efflux ratio,33.1
same,"fraction unbound, human plasma",0.0395
same,"fraction unbound, rat plasma",0.119
same,"intrinsic clearance, human liver microsomes",149 mL/min/kg
same,"intrinsic clearance, rat liver microsomes",572 mL/min/kg
CSC[C@H]1CN(Cc2c[nH]c3c(N)ncnc23)C[C@@H]1O,"intrinsic clearance, human liver microsomes",≤ 4.74 mL/min/kg
same,"intrinsic clearance, rat liver microsomes",≤ 10.7 mL/min/kg
c1ccc(-c2noc(C3CCNCC3)n2)nc1,"intrinsic clearance, human liver microsomes",≤ 4.74 mL/min/kg
same,"intrinsic clearance, rat liver microsomes",≤ 10.7 mL/min/kg
COc1ccc(Cl)cc1N(CC(=O)Nc1ccccc1C(=O)NCc1ccccc1)S(C)(=O)=O,"intrinsic clearance, human liver microsomes",594 mL/min/kg
same,"intrinsic clearance, rat liver microsomes",1370 mL/min/kg
O=c1[nH]c2ccccc2n1C1CCN(Cc2nnc(-c3cc4c(s3)CCCC4)o2)CC1,"intrinsic clearance, human liver microsomes",51.8 mL/min/kg
same,"intrinsic clearance, rat liver microsomes",1090 mL/min/kg
same,aqueous solubility,2.45 µg/mL
Cc1ccc2nc3c(c(C(=O)NCc4cnn(C)c4)c2c1)CCCC3,MDR1-MDCK efflux ratio,17.8
same,"intrinsic clearance, human liver microsomes",36.9 mL/min/kg
same,"intrinsic clearance, rat liver microsomes",74.1 mL/min/kg
same,aqueous solubility,56.3 µg/mL
O=C(Nc1ccccc1)Nc1ccccc1,"intrinsic clearance, human liver microsomes",16 mL/min/kg
same,"intrinsic clearance, rat liver microsomes",91.4 mL/min/kg
same,aqueous solubility,3.9 µg/mL
COC(=O)[C@@H]1C[C@H](O)CN1CC#Cc1ccc(Cl)cc1,MDR1-MDCK efflux ratio,0.681
same,aqueous solubility,31.8 µg/mL
CCCCN1CCc2nc3cc(C4CC4)nn3c(O)c2C1,MDR1-MDCK efflux ratio,26.5
same,"intrinsic clearance, human liver microsomes",≤ 4.74 mL/min/kg
same,"intrinsic clearance, rat liver microsomes",≤ 10.7 mL/min/kg
C[C@]12CCC3=C4CCC(=O)C=C4CC[C@H]3[C@@H]1CC[C@@]2(O)CC#N,MDR1-MDCK efflux ratio,3.64
same,"intrinsic clearance, human liver microsomes",21 mL/min/kg
same,"intrinsic clearance, rat liver microsomes",185 mL/min/kg
CC(C)N(C(=O)Cn1cccc2cc(C(F)F)nc1-2)C(C)C,MDR1-MDCK efflux ratio,4.05
same,"intrinsic clearance, human liver microsomes",285 mL/min/kg
same,"intrinsic clearance, rat liver microsomes",436 mL/min/kg
NC(=O)c1ccc(N2CCCCC2)c(NC(=O)c2ncoc2-c2ccc3ccccc3c2)c1,MDR1-MDCK efflux ratio,0.519
same,aqueous solubility,0.24 µg/mL
Clc1cnc(NCC2(CN3CCCC3)CC2)nc1,MDR1-MDCK efflux ratio,0.734
same,"intrinsic clearance, human liver microsomes",≤ 4.74 mL/min/kg
same,"intrinsic clearance, rat liver microsomes",134 mL/min/kg
Cn1cc(-c2nnc(NCc3ccc4ccccc4c3)o2)cn1,MDR1-MDCK efflux ratio,0.701
same,"intrinsic clearance, human liver microsomes",7.14 mL/min/kg
same,"intrinsic clearance, rat liver microsomes",46.3 mL/min/kg
same,aqueous solubility,11.2 µg/mL
O=C(Nc1nc2ccccc2[nH]1)c1ccccc1,aqueous solubility,1.65 µg/mL
CC(=O)N1CCN(Cc2nc(O)cc(C(F)(F)F)n2)C(C)(C)C1,MDR1-MDCK efflux ratio,26.6
same,"intrinsic clearance, human liver microsomes",≤ 4.74 mL/min/kg
same,"intrinsic clearance, rat liver microsomes",≤ 10.7 mL/min/kg
Cc1cc2cc(C(=O)N(C)CCC(=O)O)oc2cc1C,MDR1-MDCK efflux ratio,1.72
same,"intrinsic clearance, human liver microsomes",≤ 4.74 mL/min/kg
same,"intrinsic clearance, rat liver microsomes",≤ 10.7 mL/min/kg
same,aqueous solubility,47 µg/mL
CS(=O)(=O)NC1CCCN(c2nc3ccccc3o2)C1 (stereo not given),MDR1-MDCK efflux ratio,4.21
same,"intrinsic clearance, human liver microsomes",≤ 4.74 mL/min/kg
same,"intrinsic clearance, rat liver microsomes",42.3 mL/min/kg
CCC(=O)N1CCCc2cc(C(O)CN3CCN(c4ccc(OC)cc4)CC3)ccc21 (stereo not given),MDR1-MDCK efflux ratio,1.69
same,"intrinsic clearance, human liver microsomes",167 mL/min/kg
same,"intrinsic clearance, rat liver microsomes",283 mL/min/kg
same,aqueous solubility,70 µg/mL
OCc1nnc(SCCSC2CCCCC2)n1C1CC1,MDR1-MDCK efflux ratio,1.96
same,"intrinsic clearance, human liver microsomes",29 mL/min/kg
same,"intrinsic clearance, rat liver microsomes",728 mL/min/kg
Nc1ccc2c(ccn2CC(=O)N2CCOCC2)c1,"intrinsic clearance, human liver microsomes",≤ 4.74 mL/min/kg
same,"intrinsic clearance, rat liver microsomes",≤ 10.7 mL/min/kg
same,aqueous solubility,50.5 µg/mL
Cc1cc(Nc2nc(N[C@@H](C)c3ncc(F)cn3)ncc2Cl)n[nH]1,MDR1-MDCK efflux ratio,10.5
same,"intrinsic clearance, human liver microsomes",8.47 mL/min/kg
same,"intrinsic clearance, rat liver microsomes",46.3 mL/min/kg
Cc1nc(-c2ccccc2)ccc1C(=O)N1CCCS1(=O)=O,MDR1-MDCK efflux ratio,0.766
same,"intrinsic clearance, human liver microsomes",≤ 4.74 mL/min/kg
same,"intrinsic clearance, rat liver microsomes",96 mL/min/kg
same,aqueous solubility,78.5 µg/mL
O=C(O)c1cnn(-c2ccncc2)c1C(F)F,"intrinsic clearance, human liver microsomes",≤ 4.74 mL/min/kg
same,"intrinsic clearance, rat liver microsomes",≤ 10.7 mL/min/kg
same,aqueous solubility,31.9 µg/mL
CCCC(=O)Nc1ccc(C(=O)N(C)C)cc1,MDR1-MDCK efflux ratio,1.41
same,"intrinsic clearance, human liver microsomes",22.2 mL/min/kg
same,"intrinsic clearance, rat liver microsomes",50.7 mL/min/kg
Cc1ccc(C(=O)C(=O)Nc2c(C)nn(C)c2C)cc1,MDR1-MDCK efflux ratio,0.615
same,"intrinsic clearance, human liver microsomes",20 mL/min/kg
same,"intrinsic clearance, rat liver microsomes",115 mL/min/kg
same,aqueous solubility,32.6 µg/mL
Cn1nccc1CC1CCN(C2CCCC2)CC1,MDR1-MDCK efflux ratio,0.94
same,"intrinsic clearance, human liver microsomes",≤ 4.74 mL/min/kg
same,"intrinsic clearance, rat liver microsomes",258 mL/min/kg
same,aqueous solubility,26.2 µg/mL
c1ccc(Nc2nc(N3CCOCC3)nc(N3CCOCC3)n2)cc1,MDR1-MDCK efflux ratio,0.502
same,"intrinsic clearance, human liver microsomes",22.8 mL/min/kg
same,"intrinsic clearance, rat liver microsomes",48.3 mL/min/kg
O=C(N[C@@H](COc1ccc2[nH]c(=O)[nH]c2c1)c1ccccc1)c1cccn(Cc2ccc(F)c(F)c2)c1=O,"intrinsic clearance, human liver microsomes",53.2 mL/min/kg
same,"intrinsic clearance, rat liver microsomes",383 mL/min/kg
CCC(=O)Nc1sc2c(c1C#N)CCC2,"intrinsic clearance, human liver microsomes",156 mL/min/kg
same,"intrinsic clearance, rat liver microsomes",381 mL/min/kg
COc1ccc(-c2ccc(Cn3nc(C)cc3C)cn2)cc1,MDR1-MDCK efflux ratio,0.479
same,"intrinsic clearance, human liver microsomes",23.7 mL/min/kg
same,"intrinsic clearance, rat liver microsomes",255 mL/min/kg
CCOc1cc2nn(CCC(C)(C)O)cc2cc1NC(=O)c1cccc(C(F)F)n1,MDR1-MDCK efflux ratio,11
same,"fraction unbound, human plasma",0.0126
same,"fraction unbound, rat plasma",0.0186
same,"intrinsic clearance, human liver microsomes",≤ 4.74 mL/min/kg
same,"intrinsic clearance, rat liver microsomes",≤ 10.7 mL/min/kg
same,aqueous solubility,3.55 µg/mL
Cc1cc(C)c(NC(=O)c2cc(Cl)ccc2F)c(C)n1,MDR1-MDCK efflux ratio,0.756
same,"intrinsic clearance, human liver microsomes",8.2 mL/min/kg
same,"intrinsic clearance, rat liver microsomes",40 mL/min/kg
same,aqueous solubility,62.8 µg/mL
Cc1cccc(-n2c(S)nnc2CNc2ccc(F)cc2)c1,MDR1-MDCK efflux ratio,2.44
same,"intrinsic clearance, human liver microsomes",17.2 mL/min/kg
same,"intrinsic clearance, rat liver microsomes",188 mL/min/kg
same,aqueous solubility,50.2 µg/mL
Nc1ccc2[nH]c(CCc3ccccc3)nc2c1,MDR1-MDCK efflux ratio,1.27
same,"intrinsic clearance, human liver microsomes",≤ 4.74 mL/min/kg
same,"intrinsic clearance, rat liver microsomes",28.8 mL/min/kg
same,aqueous solubility,36.3 µg/mL
Cc1nc(C(=O)NCC(=O)O)c(O)c2ccc(Oc3ccccc3)cc12,MDR1-MDCK efflux ratio,1.23
same,"intrinsic clearance, human liver microsomes",≤ 4.74 mL/min/kg
same,"intrinsic clearance, rat liver microsomes",≤ 10.7 mL/min/kg
c1ccc(-c2noc(Cn3ccnc3)n2)nc1,MDR1-MDCK efflux ratio,1.44
same,"intrinsic clearance, human liver microsomes",≤ 4.74 mL/min/kg
same,"intrinsic clearance, rat liver microsomes",≤ 10.7 mL/min/kg
COCCOc1ccc(N2CCN(CCn3ncc4c3nc(N)n3nc(-c5ccco5)nc43)CC2)cc1,aqueous solubility,0.9 µg/mL
CN(C)c1ccnc(NC(=O)c2cnsn2)c1,"intrinsic clearance, human liver microsomes",163 mL/min/kg
same,"intrinsic clearance, rat liver microsomes",280 mL/min/kg
Cc1ncc(-c2ccc(C)c(S(=O)(=O)NCc3cnn(C)c3C)c2)o1,MDR1-MDCK efflux ratio,36.5
same,"intrinsic clearance, human liver microsomes",177 mL/min/kg
same,"intrinsic clearance, rat liver microsomes",1370 mL/min/kg
COc1cccc(Oc2ccc(NC(=O)CN3CCCCC3=O)cn2)c1,MDR1-MDCK efflux ratio,13.6
same,"intrinsic clearance, human liver microsomes",≤ 4.74 mL/min/kg
same,"intrinsic clearance, rat liver microsomes",76.8 mL/min/kg
CNC(=O)C1(Cc2ccc(-c3ccncc3)cc2)CCN(Cc2cccc(F)c2)C1 (stereo not given),"fraction unbound, human plasma",0.127
same,"fraction unbound, rat plasma",0.0519
same,"intrinsic clearance, human liver microsomes",250 mL/min/kg
same,"intrinsic clearance, rat liver microsomes",891 mL/min/kg
same,aqueous solubility,57.5 µg/mL
Cc1cc(C)nc(NS(=O)(=O)c2ccc(NC(=O)/C=C/c3ccc([N+](=O)[O-])s3)cc2)n1,"intrinsic clearance, human liver microsomes",14 mL/min/kg
same,"intrinsic clearance, rat liver microsomes",57.3 mL/min/kg
